Columns and labels:
[1] = system: KRAS G12V mutant NCI-H727 cells; experiment: Proliferation inhibition of NCI-H727 cells, 3D CellTiter-Glo assay (Method B); assay type: cell-based, human; settings: Homo sapiens, NCI-H727, 120 h, Method B; 3D culture with 0.65% methylcellulose, 5 days, CTG; read-out: NCI-H727 IC50/nM
How it was run: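 Cells grown in 3D medium (RPMI-1640, 10% FBS, 0.65% methylcellulose) overnight, then treated 5 days at 37 °C, 5% CO2 with 9 threefold dilutions from 10 µM top working concentration, duplicate wells. CellTiter-Glo luminescence read; IC50 (nM) fitted by dose-response-inhibition equation.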

[2] = system: KRAS G12D mutant AGS cells; experiment: Proliferation inhibition of AGS cells, CellTiter-Glo assay; assay type: cell-based, human; settings: Homo sapiens, AGS, 72 h, 3 days, CTG; read-out: AGS IC50/nM
How it was run: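 AGS cells at 1500 cells/well in F12K + 10% FBS were exposed for 3 days at 37°C to nine 3-fold dilutions from 10 µM top concentration, in duplicate. Viability read by CellTiter-Glo luminescence; IC50 (nM) from dose-response-inhibition fitting.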

[3] = Pharmacokinetics in mice; settings: mouse, po
Protocol: (§1) Male CD-1 mice, aged 6-8 weeks, were purchased from Zhejiang Vital River Laboratory Animal Co., Ltd.
(§2) For the PO administration group, compounds were formulated in 0.5% Tween 80 and 99.5% (0.5%MC (400cp)) vehicle or 0.5%MC (400cp) vehicle to a final concentration of 1 mg/mL or 2 mg/mL for each compound. The drug formulation was administered to CD-1 mice via gavage at a dose of 10 mL/kg. Blood samples were collected from the submandibular vein or other suitable means at 15 min, 30 min, 1 h, 2 h, 4 h, 6 h, 8 h, and 24 h after administration. The blood samples were centrifuged at low temperature for 5 minutes, and the plasma was collected and stored at -80°C for analysis.
(§3) 10 µL of plasma sample was taken, 200 µL of methanol containing an internal standard as a precipitant was added to precipitate plasma proteins, the compounds to be tested in the plasma was extracted, centrifuged at low temperature, and 10 µL of the supernatant was injected. The drug concentration in blood plasma was analyzed by LC-MS/MS. The pharmacokinetic parameters were calculated using Winnonlin based on the blood drug concentration data at different time points.

[4] = system: human lung cancer cells NCI-H441 with KRAS-G12V mutation; experiment: Antitumor effect in NCI-H441 subcutaneous xenograft model; assay type: in vivo, NU/NU mice; settings: 20 mpk, PO; for Tumor volume (mm^3) (day 16): BID×17; for TGI%: BID×17, day 16
Protocol: NCI-H441 cells were purchased from ATCC (catalog number: HTB-174). Male NU/NU mice were purchased from Jiangsu Jicui Yaokang Biotechnology Co., Ltd.
NCI-H441 cells were cultured in RPMI-1640 medium containing 10% FBS. Cells in the logarithmic growth phase were collected and resuspended in PBS to an appropriate concentration for subcutaneous tumor inoculation in mice. Experimental mice were subcutaneously inoculated in the right posterior back at a seeding density of 1×10^6 cells/mouse+Matrigel, with a seeding volume of 0.1 mL. When the average tumor volume reached ~150 mm^3, mice were randomly assigned to groups based on tumor size and body weight for drug administration. Drug administration began immediately after grouping, and the day of administration was considered day 0. The drug was administered to the mice twice daily via gavage at doses of 10 mpk, 20 mpk, 30 mpk, or a solvent control (0.5% Tween 80+99.5% of 0.5% MC (400 cp) or 0.5% MC (400 cp)). During the experiment, mouse body weight and tumor size were measured twice weekly. Tumor size was calculated using the formula: Tumor volume (mm^3)=0.5×(Tumor long diameter × Tumor short diameter^2). Relative tumor inhibition rate (TGI) (%): TGI%=[1-(Average tumor volume at the end of treatment in a given treatment group - Average tumor volume at the start of treatment in the treatment group) / (Average tumor volume at the end of treatment in the solvent control group - Average tumor volume at the start of treatment in the solvent control group)] × 100%.

[5] = system: human pancreatic cancer cells HPAC; settings: po, 20 mg/kg, 408 h
Protocol: The following materials were used in this experiment: NOD/SCID mice, 6-8 weeks old, female, Jiangsu Jicui Yaokang Biotechnology Co., Ltd.; HPAC cells (carrying KRas G12D mutant protein, ATCC); Captisol (Wuhan Fengyao Tonghui Chemical Products Co., Ltd., Cas#182410-00-0); sodium acetate (aladdin) MC (sigma, 9004-67-5).
The experiment was conducted as follows: 6- to 8- week-old female NOD/SCID mice were subcutaneously inoculated with 1×10^7 HPAC cells in their right posterior back, with an inoculation volume of 0.1 mL. When the tumor reached an average volume of 150 mm^3, mice were randomly assigned to groups based on tumor size and body weight for drug administration. The day of drug administration was considered day 0. The test compound was administered by gavage to four mice in each group, while the control group received an equal volume of the solvent via gavage.
During the experiment, tumor volume and body weight were measured twice a week. Tumor volume was calculated using the formula: Tumor volume (mm^3)=0.5×(tumor long diameter×tumor short diameter^2). The mean tumor inhibition rate (TGI%) was calculated as follows: [(average tumor volume in the control group-average initial tumor volume in the control group)-(average tumor volume in the treatment group - average initial tumor volume in the treatment group)] / (average tumor volume in the control group - average initial tumor volume in the control group).

[6] = system: KRAS G12S mutant A549 cells; experiment: Proliferation inhibition of A549 cells, 3D CellTiter-Glo assay; assay type: cell-based; settings: Homo sapiens, A549, 120 h, read-out: A549 IC50/nM
Protocol: A549 cells (Nanjing Kebai Biotechnology Co., Ltd., catalog number CBP60084, adherent, culture medium (F12K Nutrient Mixture+10%FBS (GIBCO, Cat#10091-148) at 37°C, 5%CO2, and 95% humidity.
3D Cell Viability Assay: Cells in the logarithmic growth phase were harvested and counted using a platelet counter. Cell viability was assessed using the trypan blue exclusion method to ensure a viability of over 90%. The 3D cell culture medium was prepared by adding 1% MC (methylcellulose, Sigma, Cat#M0512) F-12K medium and 10% FBS. The cell concentration was adjusted to approximately 7407 cells/mL using the 3D medium, and the methylcellulose (MC) content was set to 0.65%. Then, 135 µL of cell suspension was added to each 96-well clear, flat-bottomed, black-walled plate (Greiner, Cat#655096). The cells in the 96-well plates were cultured overnight at 37°C with 5% CO2.
Drug preparation for IC50 assay: A 10-fold drug solution was prepared using culture medium. […] of the drug solution was added to each well of a 96-well plate seeded with cells to achieve a working concentration of up to 10 µM, with a 3× dilution, and 9 concentrations. 2 replicate wells for each drug concentration were set. The cells in the drug-treated 96-well plates were cultured at 37°C and 5% CO^2 for additional5 days, then CTG assay (CellTiter-Glo® Luminescent Cell Viability Assay (Promega, Cat#G7573)) were performed.
The cell plate was equilibrated to room temperature for 30 minutes and the CTG reagent was thawed. 75 µL of CTG solution was added to each well for detection, and the plate was shaken on an orbital shaker for 5 minutes to lyse the cells. The cell plate was placed at room temperature for 25 minutes to stabilize the cryo-luminescence signal and the cryo-luminescence value was read (EnVision® multi-plate reader, PerkinElmer#2105).
Data was analyzed using GraphPad Prism software. The dose-response-inhibition equation was used to fit the data to obtain the dose-response curve, and the IC50 value (nM) was calculated accordingly. [formula]

[7] = in vivo; settings: mouse, po, 20 mg/kg
Protocol: as §1, §2, §3

Structure (SMILES) | IC50 [1] | IC50 [2] | AUC(0-t) at 8 h ([3]; plasma, 20 mg/kg) | also measured
CC[C@H]1CCn2nc(C(=O)N(C)C)c(COC)c2CN1c1nc(OC[C@]2(C)CN(CC)CC/C2=C\F)nc2c(F)c(-c3c(F)ccc4sc(N)c(C#N)c34)c(Cl)cc12 (single isomer, unassigned) [Example 240A] | < 1.5 nM | 2.5 nM | 2920 ng·h/mL | 
[2H]C([2H])([2H])N1CCC(=CF)C(C)(COc2nc(N3Cc4cc(C(=O)N(C)C)nn4CCC3C)c3cc(Cl)c(-c4c(F)ccc5sc(N)c(C#N)c45)c(F)c3n2)C1 (stereo not shown) [Example 255A] | < 1.5 nM | < 1.5 nM |  | Tumor volume (mm^3) (day 16) [4]: 259 mm^3; TGI% [4]: 74%
[2H]C([2H])([2H])N1CC/C(=C\F)[C@](C)(COc2nc(N3Cc4cc(C(=O)N(C)C)nn4CC[C@@H]3C)c3cc(C(F)(F)F)c(-c4c(F)ccc5sc(N)c(C#N)c45)c(F)c3n2)C1 (single isomer, unassigned) [Example 247A] | < 1.5 nM | < 1.5 nM |  | Tumor volume (mm^3) (day 16) [4]: 162 mm^3; TGI% [4]: 97%; TGI% [5]: 98%; Tumor volume (mm^3) (day 17) [5]: 161 mm^3
[2H]C([2H])([2H])C([2H])([2H])N1CC/C(=C\F)[C@](C)(COc2nc(N3Cc4c(COC)c(C(=O)N(C)C)nn4CC[C@@H]3C)c3cc(Cl)c(-c4c(F)ccc5sc(N)c(C#N)c45)c(F)c3n2)C1 (atropisomer, axis not shown) [Example 243A] | < 1.5 nM | < 1.5 nM | 9960 ng·h/mL | 
CCN1CC/C(=C\F)[C@](C)(COc2nc(N3Cc4cc(C(=O)N(C)C)nn4CC[C@@H]3C)c3cc(Cl)c(-c4c(F)ccc5sc(N)c(C#N)c45)c(F)c3n2)C1 (atropisomer, axis not shown) [Example 246A] | < 1.5 nM | < 1.5 nM | 1040 ng·h/mL | 
CCc1cc2c(N3Cc4cc(C(=O)N(C)C)nn4CC[C@@H]3C)nc(OC[C@]3(C)CN(CC)CC/C3=C\F)nc2c(F)c1-c1c(F)ccc2sc(N)c(C#N)c12 (single isomer, unassigned) [Example 175A] | < 1.5 nM | < 1.5 nM |  | IC50 [6]: 23.3 nM; Tumor volume (mm^3) (day 16) [4]: 266 mm^3; TGI% [4]: 73%
CCN1CC/C(=C\F)[C@](C)(COc2nc(N3Cc4c(COC)c(C(=O)N(C)C)nn4CC[C@@H]3C)c3cc(Cl)c(-c4c(F)ccc5sc(N)c(C#N)c45)c(C)c3n2)C1 (single isomer, unassigned) [Example 229A] | < 1.5 nM | 1.7 nM |  | AUC(0-t) at 8 h ([3]; in vivo, 20 mg/kg): 4490 ng·h/mL
[2H]C([2H])([2H])N1CCC(=CF)C(C)(COc2nc(N3CCCn4nc(C(=O)N(C)C)c(Cl)c4C3)c3cc(CC)c(-c4c(F)ccc5sc(N)c(C#N)c45)c(F)c3n2)C1 (atropisomer, axis not shown) [Example 265A] | 2.8 nM | < 1.5 nM |  | Tumor volume (mm^3) (day 16) [4]: 330 mm^3; TGI% [4]: 57%; TGI% [5]: 80%; Tumor volume (mm^3) (day 17) [5]: 237 mm^3
[2H]C([2H])([2H])N1CC/C(=C\F)[C@](C)(COc2nc(N3Cc4c(COC)c(C(=O)N(C)C)nn4CC[C@@H]3C)c3cc(CC)c(-c4c(F)ccc5sc(N)c(C#N)c45)c(F)c3n2)C1 (single isomer, unassigned) [Example 258A] | < 1.5 nM | 1.9 nM | 1320 ng·h/mL | 
CCN1CCC(C(F)F)C(C)(COc2nc(N3Cc4c(COC)c(C(=O)N(C)C)nn4CCC3C)c3cc(Cl)c(-c4c(F)ccc5sc(N)c(C#N)c45)c(F)c3n2)C1 (stereo not shown) [Example 251A] | < 1.5 nM | 1.8 nM | 1960 ng·h/mL | 
CCN1CC/C(=C\F)[C@](C)(COc2nc(N3Cc4cc(C(=O)N(C)C)nn4CC[C@@H]3C)c3cc(Cl)c(-c4c(F)ccc5sc(N)c(C#N)c45)c(C)c3n2)C1 (single isomer, unassigned) [Example 178A] | < 1.5 nM | 1.9 nM |  | AUC(0-t) at 8 h ([3]; plasma, 10 mg/kg): 1190 ng·h/mL
CCN1CC/C(=C\F)[C@](C)(COc2nc(N3Cc4c(COC)c(C(=O)N(C)C)nn4CC[C@@H]3C)c3cc(C(F)(F)F)c(-c4c(F)ccc5sc(N)c(C#N)c45)c(F)c3n2)C1 (single isomer, unassigned) [Example 232A] | < 1.5 nM | < 1.5 nM |  | AUC(0-t) at 8 h [7]: 1520 ng·h/mL
CCN1CC/C(=C\F)[C@](C)(COc2nc(N3Cc4c(COC)c(C(=O)N(C)C)nn4CC[C@@H]3C)c3cc(Cl)c(-c4c(F)ccc5sc(N)c(C#N)c45)c(C(F)F)c3n2)C1 (atropisomer, axis not shown) [Example 241A] | 6.5 nM | 8.3 nM | 1660 ng·h/mL | 
CCN1CC/C(=C\F)[C@](C)(COc2nc(N3Cc4c(COC)c(C(=O)N(C)C)nn4CC[C@@H]3C)c3cc(Cl)c(-c4c(F)cc(F)c5sc(N)c(C#N)c45)c(F)c3n2)C1 (single isomer, unassigned) [Example 237A] | < 1.5 nM | < 1.5 nM | 3910 ng·h/mL | 
[2H]C([2H])([2H])N(C(=O)c1nn2c(c1COC)CN(c1nc(OC([2H])([2H])[C@]3(C)CN(CC)CC/C3=C\F)nc3c(F)c(-c4c(F)ccc5sc(N)c(C#N)c45)c(Cl)cc13)[C@@H](C)CC2)C([2H])([2H])[2H] (single isomer, unassigned) [Example 235A] | < 1.5 nM | < 1.5 nM | 2990 ng·h/mL | 
[2H]C([2H])([2H])N1CC/C(=C\F)[C@](C)(COc2nc(N3CCCn4nc(C(=O)N(C)C)c(Cl)c4C3)c3cc(C4CC4)c(-c4c(F)ccc5sc(N)c(C#N)c45)c(F)c3n2)C1 [Example 266A] | 3 nM | < 1.5 nM |  | Tumor volume (mm^3) (day 16) [4]: 307 mm^3; TGI% [4]: 63%
CCN1CC/C(=C\F)[C@](C)(COc2nc(N3CCCn4nc(C(=O)N(C)C)c(Cl)c4C3)c3cc(Cl)c(-c4c(F)ccc5sc(N)c(C#N)c45)c(F)c3n2)C1 (single isomer, unassigned) [Example 256A] | < 1.5 nM | 1.5 nM | 1380 ng·h/mL | 
CCOc1c(C(=O)N(C)C)nn2c1CN(c1nc(OC[C@]3(C)CN(CC)CC/C3=C\F)nc3c(F)c(-c4c(F)ccc5sc(N)c(C#N)c45)c(Cl)cc13)[C@@H](C)CC2 (single isomer, unassigned) [Example 236A] | 1.5 nM | 2.7 nM | 2820 ng·h/mL | 
[2H]C([2H])([2H])C([2H])([2H])N1CC/C(=C\F)[C@](C)(COc2nc(N3Cc4c(COC)c(C(=O)N(C)C)nn4CC[C@@H]3C)c3cc(Cl)c(-c4c(F)ccc5sc(N)c(C#N)c45)c(C)c3n2)C1 (atropisomer, axis not shown) [Example 249A] | < 1.5 nM | 2.3 nM |  | AUC(0-t) at 8 h ([3]; in vivo, 20 mg/kg): 5360 ng·h/mL
CCN1CC/C(=C\F)[C@](C)(COc2nc(N3Cc4cc(C(C)=O)nn4CC[C@@H]3C)c3cc(Cl)c(-c4c(F)ccc5sc(N)c(C#N)c45)c(F)c3n2)C1 (single isomer, unassigned) [Example 268A] | 4 nM | 3.5 nM |  | AUC(0-t) at 8 h ([3]; plasma, 10 mg/kg): 907 ng·h/mL
